# Results from article PMC7356228, “Alvaxanthone, a Thymidylate Synthase Inhibitor with Nematocidal and Tumoricidal Activities” (Molecules, 2020).
# Read-outs that look alike come from different tables or passages of the source.
# Tests used:
# hTS = target: T1, hTS (Homo sapiens, UniProt P04818); assay: Inhibition of TS-catalyzed reaction (tritium release from [5-3H]dUMP); type: biochemical; settings: for remaining activity at 10 µM: compound 10 µM; for remaining activity at 100 µM: compound 100 µM, read-out: % Remaining Activity
# T1 construct: made in house
# Text: (§1) The recombinant human, rat, mouse, T. spiralis and C. elegans TS proteins were produced, purified and separated into phosphorylated and non-phosphorylated fraction, as previously described. TS activity was monitored, following tritium release from [5-^3H]dUMP, and its inhibition studied as earlier reported.
# mTS = target: T2, mTS (Mus musculus, UniProt P07607); assay: as above; type: biochemical; settings: for remaining activity at 10 µM: compound 10 µM; for remaining activity at 100 µM: compound 100 µM, read-out: % Remaining Activity
# T2 construct: made in house
# Text: as §1
# CeTS = target: T3, CeTS (Caenorhabditis elegans, UniProt Q9Y052); assay: as above; type: biochemical, C. elegans; settings: for remaining activity at 10 µM: compound 10 µM; for remaining activity at 100 µM: compound 100 µM, read-out: % Remaining Activity
# T3 sequence (Q9Y052 1-315): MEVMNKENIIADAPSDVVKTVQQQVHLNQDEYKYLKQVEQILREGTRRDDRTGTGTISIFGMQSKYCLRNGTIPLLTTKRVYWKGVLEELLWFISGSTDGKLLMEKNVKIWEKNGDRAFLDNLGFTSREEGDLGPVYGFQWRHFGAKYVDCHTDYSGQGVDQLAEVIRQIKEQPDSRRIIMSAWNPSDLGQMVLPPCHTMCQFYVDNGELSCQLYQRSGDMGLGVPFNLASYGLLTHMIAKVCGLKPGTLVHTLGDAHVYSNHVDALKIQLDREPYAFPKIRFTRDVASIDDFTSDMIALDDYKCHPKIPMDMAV
# Text: as §1
# TsTS = TsTS (Trichinella spiralis, UniProt Q9NDD3); assay: as above; type: biochemical, T. spiralis; settings: for remaining activity at 100 µM: compound 100 µM
# Text: as §1
# C. elegans [1] = assay: Toxicity to C. elegans (population growth); settings: Caenorhabditis elegans, read-out: LC50 (reduction of growth of the nematode population)
# Protocol: C. elegans was maintained as previously described. The effect of the compounds studied on C. elegans population growth was determined as earlier presented.
# [2] = tested on: BJ normal human skin fibroblasts; assay: Cytotoxicity, neutral red uptake (NR) assay; type: cell-based; settings: Homo sapiens, Skin fibroblast
# Protocol: (§2) Biological effect of alvaxanthone and rheediaxanthone B on normal (BJ) and cancer cells (U-118 MG and SCC-15) was estimated using two viability assays, the neutral red uptake (NR) and tetrazolium salts reduction (XTT) assays.
# (§3) Human glioblastoma cells U-118 MG (ATCC® HTB-15), human squamous carcinoma cells SCC-15 (ATCC® CRL-1623), and normal human skin fibroblasts (ATCC® CRL-2522) were grown, their morphology checked, and number and viability estimated as earlier presented.
# (§4) Influence of selected compounds on cells was tested by performing the cytotoxicity (NR and XTT) assays, proliferation assay, cell adhesion assay, cell migration assay, determination of intracellular ATP level, and apoptosis assay as previously reported.
# [3] = tested on: SCC-15 human squamous carcinoma cells; assay: Cytotoxicity, neutral red uptake (NR) assay; type: cell-based; settings: Homo sapiens
# Protocol: as §2, §3, §4
# [4] = tested on: U-118 MG human glioblastoma cells; assay: Cytotoxicity, neutral red uptake (NR) assay; type: cell-based
# Protocol: as §2, §3, §4
# [5] = tested on: BJ, U-118 MG and SCC-15 cells; assay: NR assay, summary over the three cell lines; type: cell-based, human; settings: Homo sapiens, 48 h, span over BJ
# Protocol: as §2
# Thus, alvaxanthone may be damaging mitochondria and impairing their metabolism exerting one of possible mechanisms active in destroying cancer cells. Changes of cell morphology in dependence on increasing alvaxanthone and rheediaxanthone B concentration were also recorded. While the glioma and squamous carcinoma cells formed clusters, lost their adhesion, shrank, and accumulated less NR dye, normal fibroblasts preserved rather normal shapes but the amount of the neutral red dye and confluence of cells decreased. In addition, a lower number of BJ cells was detected (Figure 1B).
# as §4
# BJ cells [6] = assay: Cell adhesion, crystal violet assay; type: cell-based, human; settings: 48-h treatment
# Protocol: (§5) Cancer metastasis, resulting from an impairment of adhesion between cancer cells and the extracellular matrix may cause cell migration from a primary tumor into distant parts of an organism. The cristal violet assay was used to examine alvaxanthone and rheediaxanthone B ability to influence cellular adhesion.
# (§6) Figure 3 Influence of alvaxanthone or rheediaxanthone B on BJ, U-118 MG, and SCC-15 cells adhesion after 48-h treatment. The crystal violet assay was used. Results are medians of triplicate assays of three independent experiments expressed as a % of non-treated controls. The whiskers are lower (25%) and upper (75%) quartile ranges. * p ≤ 0.05, Kruskal–Wallis test (against non-treated control).
# as §4
# SCC-15 cells [7] = assay: Cell adhesion, crystal violet assay; type: cell-based, human; settings: 48-h treatment
# Protocol: as §5, §6, §4
# U-118 MG cells [8] = assay: Cell adhesion, crystal violet assay; type: cell-based, human; settings: 48-h treatment
# Protocol: as §5, §6, §4
# [9] = tested on: caspases 3/7 in BJ, U-118 MG, and SCC-15 cells; assay: Apo-ONE Homogenous Caspase-3/7 Assay; type: cell-based, human; settings: 48 h, 5–40 µM, span over the three cell lines
# Protocol: (§7) Figure 4 Changes of caspase-3/7 activities and intracellular ATP level in BJ, U-118 MG, and SCC-15 cells after 48-h incubation with 5–40 µM alvaxanthone or rheediaxanthone B. Median results are presented of three independent experiments, each performed in triplicate. The whiskers are lower (25%) and upper (75%) quartile ranges.
# The Apo-ONE® Homogenous Caspase-3/7 Assay provides a measurement of the executioner caspases 3/7 activation, characteristic for apoptosis induced via both the intrinsic and extrinsic pathway. It was used to determine apoptosis induction in cells by alvaxanthone and rheediaxanthone B. In each of the three cell lines, compared to the respective non-treated control, treatment with each of the two compounds for 48 h led to a significant activation of the caspases 3/7 (by 2- to 10-fold for alvaxanthone and 8- to 18-fold for rheediaxanthone B), the effect being stronger in cancer than normal cells (Figure 4).
# as §4
# BJ cells [10] = assay: Intracellular ATP level (CellTiterGlo); type: cell-based, human; settings: 48-h incubation, fibroblasts
# Protocol: as §7
# (§8) On the other hand, rheediaxanthone B caused a reduction of ATP level down to around 30% in glioma cells and fibroblasts, and to 20% in squamous carcinoma cells (Figure 4). In general, with increasing Caspase-3/7 activity the ATP level was decreasing, in accord with the results of Reference.
# as §4
# SCC-15 cells [11] = assay: Intracellular ATP level (CellTiterGlo); type: cell-based, human; settings: 48-h incubation, squamous carcinoma cells
# Protocol: as §7, §8, §4
# U-118 MG cells [12] = assay: Intracellular ATP level (CellTiterGlo); type: cell-based, human; settings: 48-h incubation, glioma cells
# Protocol: as §7, §8, §4
# C. elegans [13] = settings: read-out: LC50 (C. elegans population growth); previously found; cited from earlier work
# [14] = 20 µM dUMP, 50 µM meTHF, read-out: IC50 Assessment
# [15] = IC50 Assessment, 20 µM dUMP, 50 µM meTHF
# [16] = 20 µM dUMP and 50 µM meTHF, experiment not repeated, read-out: IC50
# Chain of TsTS (Q9NDD3 entry or part of it): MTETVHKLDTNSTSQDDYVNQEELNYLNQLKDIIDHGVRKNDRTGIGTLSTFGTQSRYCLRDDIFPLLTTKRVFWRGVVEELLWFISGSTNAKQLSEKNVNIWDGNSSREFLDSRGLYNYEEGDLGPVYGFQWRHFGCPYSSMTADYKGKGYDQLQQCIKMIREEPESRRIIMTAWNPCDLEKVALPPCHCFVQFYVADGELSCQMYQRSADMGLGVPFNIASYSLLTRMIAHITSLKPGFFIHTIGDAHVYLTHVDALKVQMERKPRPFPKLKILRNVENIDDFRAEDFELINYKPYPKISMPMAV
# T2 sequence (P07607 whole entry): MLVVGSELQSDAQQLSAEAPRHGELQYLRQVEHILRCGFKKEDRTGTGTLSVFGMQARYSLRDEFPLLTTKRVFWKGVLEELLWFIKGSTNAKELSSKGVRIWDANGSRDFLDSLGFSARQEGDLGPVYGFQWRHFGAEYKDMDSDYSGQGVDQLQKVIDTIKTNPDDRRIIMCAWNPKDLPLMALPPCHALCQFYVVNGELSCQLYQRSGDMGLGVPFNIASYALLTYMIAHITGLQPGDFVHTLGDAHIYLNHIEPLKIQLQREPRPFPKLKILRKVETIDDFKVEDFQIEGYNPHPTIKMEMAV
# T1 sequence (P04818 whole entry): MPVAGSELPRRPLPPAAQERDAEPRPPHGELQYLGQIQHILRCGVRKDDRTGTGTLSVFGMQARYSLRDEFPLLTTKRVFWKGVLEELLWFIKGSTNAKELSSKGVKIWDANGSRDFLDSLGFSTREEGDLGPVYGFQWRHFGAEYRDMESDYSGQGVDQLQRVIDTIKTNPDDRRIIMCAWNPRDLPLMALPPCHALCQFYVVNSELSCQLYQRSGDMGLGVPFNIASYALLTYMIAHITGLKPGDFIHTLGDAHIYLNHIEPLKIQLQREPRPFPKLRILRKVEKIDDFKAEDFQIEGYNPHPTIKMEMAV
smiles,measurement,setting,value
"COc1ccc2oc3ccccc3c(=O)c2c1 [2-OMe-Xanthone (20), 2-OMe-Xanthone]",remaining activity at 1000 µM,hTS,88%
same,IC50,hTS; [14],> 1000 µM
same,remaining activity at 1000 µM,mTS,84%
same,IC50,mTS; [14],> 1000 µM
same,remaining activity at 1000 µM,CeTS,95%
same,IC50,CeTS; [15],> 1000 µM
same,IC50,TsTS; [15],> 1000 µM
same,remaining activity at 1000 µM,"TsTS; compound 1000 µM, 20 µM dUMP, 50 µM meTHF",92%
same,LC50,C. elegans [1],33.8 ± 2.1 µM
same,IC50,[2],> 40 µM
same,IC50,[3],> 40 µM
same,IC50,[4]; U-118-MG,> 40 µM
"C=CC(C)(C)c1c2c(c3oc4c(O)c(O)ccc4c(=O)c3c1O)C(C)(C)C(C)O2 (stereo not shown) [Rheediaxanthone B (17), Rheediaxanthone B]",IC50,"hTS; 20 µM dUMP and 50 µM meTHF, mean ± S.E.M. (N=3) for alvaxanthone, rheediaxanthone B not repeated, read-out: IC50",17.9 µM
same,remaining activity at 10 µM,"hTS; 20 µM dUMP, 50 µM meTHF",59%
same,remaining activity at 100 µM,"hTS; 20 µM dUMP, 50 µM meTHF",5%
same,IC50,mTS; [16],14.3 µM
same,remaining activity at 10 µM,"mTS; 20 µM dUMP, 50 µM meTHF",56%
same,remaining activity at 100 µM,"mTS; 20 µM dUMP, 50 µM meTHF",2%
same,IC50,CeTS; [16],11.4 µM
same,remaining activity at 10 µM,"CeTS; 20 µM dUMP, 50 µM meTHF",59%
same,remaining activity at 100 µM,"CeTS; 20 µM dUMP, 50 µM meTHF",14%
same,IC50,"TsTS; IC50, 20 µM dUMP and 50 µM meTHF, mean ± S.E.M. (N=3) for alvaxanthone, rheediaxanthone B not repeated",50.8 µM
same,remaining activity at 10 µM,"TsTS; compound 10 µM, 20 µM dUMP, 50 µM meTHF",68%
same,remaining activity at 100 µM,"TsTS; 20 µM dUMP, 50 µM meTHF",40%
same,LC50,C. elegans [1],16 ± 10.2 µM
same,IC50,"[2]; neutral red assay, BJ, read-out: IC50",5.5 µM
same,IC50,"[3]; SCC-15, neutral red assay, read-out: IC50",9.2 µM
same,IC50,"[4]; neutral red assay, U-118 MG, read-out: IC50",4.75 µM
same,IC50,[5],< 10 µM
same,concentration at which reduction of adhesion is significant/apparent,BJ cells [6],5 µM
same,concentration at which reduction of adhesion is significant/apparent,SCC-15 cells [7],5 µM
same,concentration at which reduction of adhesion is significant/apparent,U-118 MG cells [8],10 µM
same,activation of the caspases 3/7 compared to non-treated control,[9],8- to 18 fold
same,ATP level reduced down to,BJ cells [10],around 30%
same,ATP level reduced down to,SCC-15 cells [11],20%
same,ATP level reduced down to,U-118 MG cells [12],around 30%
"COc1c(O)cc2oc3cc(O)c(CC=C(C)C)c(O)c3c(=O)c2c1CC=C(C)C [α-Mangostin (21), α-Mangostin, reference compound]",remaining activity at 10 µM,"hTS; 20 µM dUMP, 50 µM meTHF",89%
same,remaining activity at 100 µM,"hTS; 20 µM dUMP, 50 µM meTHF",19%
same,remaining activity at 10 µM,"mTS; 20 µM dUMP, 50 µM meTHF",75%
same,remaining activity at 100 µM,"mTS; 20 µM dUMP, 50 µM meTHF",5%
same,remaining activity at 10 µM,"CeTS; 20 µM dUMP, 50 µM meTHF",79%
same,remaining activity at 100 µM,"CeTS; 20 µM dUMP, 50 µM meTHF",27%
same,IC50,TsTS; [15],> 100 µM
same,remaining activity at 100 µM,"TsTS; 20 µM dUMP, 50 µM meTHF",85%
same,LC50,C. elegans [13],3.8 µM
COC(=O)Nc1nc2ccc(C(=O)c3ccccc3)cc2[nH]1 [mebendazole],LC50,C. elegans [13],4 µM
